Source: publication PMC8400635, “A Bidirectional Permeability Assay for beyond Rule of 5 Compounds” (Pharmaceutics, 2021)

How the values were obtained:
[1] = Standard bidirectional permeability assay, Caco-2 cells; assay type: in vitro ADME; conditions: human; for Papp A→B at 10 µM: read-out: Caco-2 Papp,AB; for Papp B→A at 10 µM: read-out: Caco-2 PappBA
Caco-2 cells = assay: Modified bidirectional permeability assay (24 h preincubation), Caco-2 cells; conditions: Caco-2, modified assay; 5 µM zosuquidar
[2] = as above; conditions: human, Caco-2, pH 7.4
P-gp = assay: as above; conditions: human, Caco-2, pH 7.4, with zosuquidar 5 µM
[3] = Standard bidirectional permeability assay, MDCK-MDR1 cells; assay type: in vitro ADME, canine; conditions: dog, MDCK-MDR1, pH 7.4, 10 µM in donor, read-out: MDCK-MDR1 PappBA
P-gp (MDR1) = assay: as above; assay type: in vitro ADME, canine; conditions: dog, MDCK-MDR1, pH 7.4, 10 µM in donor; for Papp A→B at 10 µM: read-out: MDCK-MDR1 Papp,AB
[4] = pH 7.4, Caco-2, standard conditions
[5] = Caco-2, pH 7.4, standard assay, 10 µM in donor

Papp ([1]; pH 7.4, Caco-2, standard assay, read-out: intrinsic permeability)	Papp A→B [1, 4]	efflux ratio [1, 4]	inhibition of efflux by zosuquidar (P-gp substrate) (Caco-2 cells)	Papp A→B at 1 µM [2]	efflux ratio at 1 µM [2]	Papp A→B at 1 µM (P-gp)	efflux ratio at 10 µM [1, 5]	Papp A→B at 10 µM [1, 5]	Papp B→A at 10 µM [1, 5]	Papp B→A at 10 µM [3]	efflux ratio at 10 µM (P-gp (MDR1))	Papp A→B at 10 µM (P-gp (MDR1))	SMILES
14 ×10⁻⁶ cm/s	2.3 ×10⁻⁶ cm/s	15.9	inhibited completely	2.6 ×10⁻⁶ cm/s	13.8	13 ×10⁻⁶ cm/s	–	–	–	–	–	–	Cc1nnc2n1-c1sc(CCC(=O)N3CCOCC3)cc1C(c1ccccc1Cl)=NC2 [Apafant, apafant]
–	–	–	–	–	–	–	1.1	79 ×10⁻⁶ cm/s	69.5 ×10⁻⁶ cm/s	32.6 ×10⁻⁶ cm/s	0.8	38.4 ×10⁻⁶ cm/s	CC(C)NCC(O)COc1cccc2ccccc12 (stereo not drawn) [Propranolol]
–	–	–	–	–	–	–	–	54.3 ×10⁻⁶ cm/s	41 ×10⁻⁶ cm/s	68.5 ×10⁻⁶ cm/s	1	67.7 ×10⁻⁶ cm/s	COCCc1ccc(OCC(O)CNC(C)C)cc1 (stereo not drawn) [Metoprolol]
